Source: paper PMC11369877 (Therapeutic Advances in Medical Oncology, 2024)

Legend:
Asian patients = settings: palbociclib plus letrozole, PALOMA-4 trial; cited from earlier work
[1] = human, in vivo

Compound | neutropenia, grade 3 (Asian patients) | neutropenia, grade 4 (Asian patients) | geometric mean Rac,AUC [1]
CC(=O)c1c(C)c2cnc(Nc3ccc(N4CCNCC4)cn3)nc2n(C2CCCC2)c1=O [palbociclib] | 72% | 12.5% | –
CC(C)(C#N)c1cc(Cn2cncn2)cc(C(C)(C)C#N)c1 [anastrozole] | – | – | 3.66–4.15
N#Cc1ccc(C(c2ccc(C#N)cc2)n2cncn2)cc1 [letrozole] | – | – | 6.25–6.41
